The text below walks through data of US20240174679A1, “HETEROAROYL AMIDES AS LRRK2 INHIBITORS, PHARMACEUTICAL COMPOSITIONS, AND USES THEREOF” (MERCK SHARP & DOHME LLC, priority 2021, published 2024).

The structures appear in SMILES notation.

Chain of GST tagged truncated human mutant G2019S LRRK2 (Q5S007 970-2527 G2019S): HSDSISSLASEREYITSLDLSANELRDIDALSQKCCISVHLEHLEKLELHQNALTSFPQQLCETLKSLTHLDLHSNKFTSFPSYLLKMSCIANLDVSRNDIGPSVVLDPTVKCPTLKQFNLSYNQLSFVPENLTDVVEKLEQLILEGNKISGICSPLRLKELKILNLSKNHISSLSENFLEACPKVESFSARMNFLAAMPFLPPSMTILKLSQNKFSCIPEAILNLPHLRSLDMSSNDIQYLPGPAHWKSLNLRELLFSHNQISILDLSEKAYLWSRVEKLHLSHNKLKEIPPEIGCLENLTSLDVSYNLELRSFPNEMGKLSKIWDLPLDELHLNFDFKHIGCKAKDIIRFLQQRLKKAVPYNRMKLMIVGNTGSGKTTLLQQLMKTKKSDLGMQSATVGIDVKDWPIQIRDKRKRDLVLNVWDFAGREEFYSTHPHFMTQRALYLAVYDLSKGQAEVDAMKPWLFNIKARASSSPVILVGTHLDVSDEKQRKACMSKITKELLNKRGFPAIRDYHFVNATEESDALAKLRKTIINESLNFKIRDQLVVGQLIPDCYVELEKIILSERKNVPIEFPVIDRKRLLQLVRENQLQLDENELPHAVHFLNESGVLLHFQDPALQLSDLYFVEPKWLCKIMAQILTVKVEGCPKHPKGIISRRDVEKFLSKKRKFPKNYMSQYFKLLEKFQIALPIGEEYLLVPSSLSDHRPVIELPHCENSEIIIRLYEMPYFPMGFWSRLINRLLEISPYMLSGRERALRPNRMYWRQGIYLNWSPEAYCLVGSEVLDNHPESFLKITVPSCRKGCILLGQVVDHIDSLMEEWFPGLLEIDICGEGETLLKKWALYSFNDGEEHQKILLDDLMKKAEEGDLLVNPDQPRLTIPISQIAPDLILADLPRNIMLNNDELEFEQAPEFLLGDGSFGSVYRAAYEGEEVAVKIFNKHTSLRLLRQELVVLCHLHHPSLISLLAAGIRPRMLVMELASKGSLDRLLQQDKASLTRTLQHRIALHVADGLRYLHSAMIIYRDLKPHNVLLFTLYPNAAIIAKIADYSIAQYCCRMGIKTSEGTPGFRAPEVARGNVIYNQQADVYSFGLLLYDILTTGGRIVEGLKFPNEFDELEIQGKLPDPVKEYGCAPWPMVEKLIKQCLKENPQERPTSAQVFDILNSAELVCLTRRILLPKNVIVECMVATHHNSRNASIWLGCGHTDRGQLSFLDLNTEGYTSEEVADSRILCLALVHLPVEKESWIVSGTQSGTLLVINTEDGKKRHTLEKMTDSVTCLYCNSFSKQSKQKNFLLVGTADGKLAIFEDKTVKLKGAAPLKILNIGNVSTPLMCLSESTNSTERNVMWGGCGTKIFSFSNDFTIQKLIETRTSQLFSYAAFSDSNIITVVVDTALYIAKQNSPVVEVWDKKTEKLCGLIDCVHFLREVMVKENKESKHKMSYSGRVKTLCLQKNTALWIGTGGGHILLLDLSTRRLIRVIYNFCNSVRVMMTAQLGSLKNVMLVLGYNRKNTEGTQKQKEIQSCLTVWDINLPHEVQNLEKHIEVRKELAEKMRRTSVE

One assay addresses GST tagged truncated human mutant G2019S LRRK2 (Homo sapiens (Human), UniProt Q5S007, G2019S). Nature of the assay: LRRK2 Km ATP LanthaScreen Assay. The conditions noted are these: 134 μM ATP (Km ATP), LRRKtide substrate, negative log of mean IC50 (molar). The format is biochemical. The gist of the method:
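Truncated GST-tagged G2019S LRRK2 (1.25 nM enzyme solution) was preincubated with compound for 15 min at rt, then reacted for 90 min with fluorescein-LRRKtide and 134 μM ATP (Km) in Tris pH 8.5/MgCl2 buffer. After an EDTA stop, TR-FRET used a Tb anti-pERM antibody (520/495 nm ratio). IC50 came from a 4-parameter fit and is reported as pIC50, mean of several runs.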
In the case of `O=C(Nc1cnn(CC2CCC2)c1)c1cccc(-c2cnn3c2COCC3)n1` [Example 9-10, N-[1-(cyclobutylmethyl)-1H-pyrazol-4-yl]-6-(6,7-dihydro-4H-pyrazolo[5,1-c][1,4]oxazin-3-yl)pyridine-2-carboxamide], the “LRRK2 pIC50” value stood at 7.76.
Same read-out and setting: in the case of `O=C(Nc1cnn(CC2CCC2)c1)c1cccc(-c2ccc(F)cc2F)n1` [Example 9-11, N-[1-(cyclobutylmethyl)-1H-pyrazol-4-yl]-6-(2,4-difluorophenyl) pyridine-2-carboxamide] it was 5.63; in that of `COCCn1cc(-c2cccc(C(=O)Nc3cnn(CC4CCC4)c3)n2)cn1` [Example 9-12, N-[1-(cyclobutylmethyl)-1H-pyrazol-4-yl]-6-[1-(2-methoxyethyl)-1H-pyrazol-4-yl]pyridine-2-carboxamide], 6.95.
Same read-out and setting: in the case of `O=C(Nc1cnn(CC2CCC2)c1)c1cccc(-c2cnn3c2CCCC3)n1` [Example 9-13, N-[1-(cyclobutylmethyl)-1H-pyrazol-4-yl]-6-(4,5,6,7-tetrahydropyrazolo [1,5-a]pyridin-3-yl)pyridine-2-carboxamide] it was 7.68; in that of `O=C(Nc1cnn(C2CCC2)c1)c1csc(-c2cc[nH]n2)n1` [Example 9-14, N-(1-cyclobutyl-1H-pyrazol-4-yl)-2-(1H-pyrazol-3-yl)-1,3-thiazole-4-carboxamide], 7.41; in that of `O=C(Nc1cnn(CC2CCC2)c1)c1cccc(-c2cnsc2)n1` [Example 9-15, N-[1-(cyclobutylmethyl)-1H-pyrazol-4-yl]-6-isothiazol-4-ylpyridine-2-carboxamide], 6.66.
Still for that read-out and setting: in the case of `O=C(Nc1cnn(CC2CCC2)c1)c1cccc(-c2ccncc2)n1` [Example 9-16, N-[1-(cyclobutylmethyl)-1H-pyrazol-4-yl]-2,4′-bipyridine-6-carboxamide] it was 5.04.
Regarding `O=C(Nc1cnn(C2CCC2)c1)c1csc(-c2cnn(C(F)F)c2)n1` [Example 9-17, N-(1-cyclobutyl-1H-pyrazol-4-yl)-2-[1-(difluoromethyl)-1H-pyrazol-4-yl]-1,3-thiazole-4-carboxamide], the “LRRK2 pIC50” value came to 7.50.
For the molecule `Cc1[nH]ncc1-c1nc(C(=O)Nc2cnn(C3CCC3)c2)cs1` [Example 9-18, N-(1-cyclobutyl-1H-pyrazol-4-yl)-2-(5-methyl-1H-pyrazol-4-yl)-1,3-thiazole-4-carboxamide], the “LRRK2 pIC50” value turned out to be 7.59.
`O=C(Nc1cnn(CC2CCC2)c1)c1cccc(-c2ccnnc2)n1` [Example 9-19, N-[1-(cyclobutylmethyl)-1H-pyrazol-4-yl]-6-pyridazin-4-ylpyridine-2-carboxamide]: the “LRRK2 pIC50” value came out at 5.22.
Consider `Cn1nccc1-c1cccc(C(=O)Nc2cnn(CC3CCC3)c2)n1` [Example 9-20, N-[1-(cyclobutylmethyl)-1H-pyrazol-4-yl]-6-(1-methyl-1H-pyrazol-5-yl)pyridine-2-carboxamide], for which the “LRRK2 pIC50” value turned out to be 5.07.
The same measure, in the same setting: in the case of `O=C(Nc1cnn(C2CCC2)c1)c1csc(-c2cnn3c2OCCC3)n1` [Example 9-21, N-(1-cyclobutyl-1H-pyrazol-4-yl)-2-(6,7-dihydro-5H-pyrazolo[5,1-b][1,3]oxazin-3-yl)-1,3-thiazole-4-carboxamide] it was 8.08.
Still for that read-out and setting: as for `Cn1ccc(-c2cccc(C(=O)Nc3cnn(CC4CCC4)c3)n2)n1` [Example 9-22, N-[1-(cyclobutylmethyl)-1H-pyrazol-4-yl]-6-(1-methyl-1H-pyrazol-3-yl)pyridine-2-carboxamide], the figure is 6.53; as for `Cn1cc(-c2nccc(C(=O)Nc3cnn(C4CCC4)c3)n2)cn1` [Example 9-23, N-(1-cyclobutyl-1H-pyrazol-4-yl)-2-(1-methyl-1H-pyrazol-4-yl)pyrimidine-4-carboxamide], 7.47.
On the same count and under the same terms, in the case of `O=C(Nc1cnn(CC2CCC2)c1)c1cccc(-c2cccnc2F)n1` [Example 9-24, N-[1-(cyclobutylmethyl)-1H-pyrazol-4-yl]-2′-fluoro-2,3′-bipyridine-6-carboxamide] it was 7.16; in that of `Cn1cc(-c2cccc(C(=O)Nc3cnn(CC4CCC4)c3)n2)cn1` [Example 9-25, N-[1-(cyclobutylmethyl)-1H-pyrazol-4-yl]-6-(1-methyl-1H-pyrazol-4-yl)pyridine-2-carboxamide], 7.38.
As to `Cc1n[nH]c(C)c1-c1cccc(C(=O)Nc2cnn(CC3CCC3)c2)n1` [Example 9-26, N-[1-(cyclobutylmethyl)-1H-pyrazol-4-yl]-6-(3,5-dimethyl-1H-pyrazol-4-yl)pyridine-2-carboxamide], the “LRRK2 pIC50” value was found to be 6.09.
Same read-out and setting: in the case of `O=C(Nc1cnn(C2CCC2)c1)c1csc(-c2cnn3c2CCCC3)n1` [Example 9-27, N-(1-cyclobutyl-1H-pyrazol-4-yl)-2-(4,5,6,7-tetrahydropyrazolo [1,5-a]pyridin-3-yl)-1,3-thiazole-4-carboxamide] it was 8.25; in that of `Cn1cc(-c2nc(C(=O)Nc3cnn(C4CCC4)c3)cs2)cn1` [Example 9-28, N-(1-cyclobutyl-1H-pyrazol-4-yl)-2-(1-methyl-1H-pyrazol-4-yl)-1,3-thiazole-4-carboxamide], 7.85.
On the same count and under the same terms, as for `N#Cc1cccc(-c2cccc(C(=O)Nc3cnn(CC4CCC4)c3)n2)c1` [Example 9-29, 6-(3-cyanophenyl)-N-[1-(cyclobutylmethyl)-1H-pyrazol-4-yl]pyridine-2-carboxamide], the figure is 5.51.
Still for that read-out and setting: in the case of `COc1ccncc1-c1cccc(C(=O)Nc2cnn(CC3CCC3)c2)n1` [Example 9-30, N-[1-(cyclobutylmethyl)-1H-pyrazol-4-yl]-4′-methoxy-2,3′-bipyridine-6-carboxamide] it was 6.76; in that of `O=C(Nc1cnn(CC2CCC2)c1)c1cccc(-c2csc3ccccc23)n1` [Example 9-31, 6-(1-benzothiophen-3-yl)-N-[1-(cyclobutylmethyl)-1H-pyrazol-4-yl]pyridine-2-carboxamide], 5.18.
For the molecule `Cn1ccc(-c2cccc(C(=O)Nc3cnn(CC4CCC4)c3)n2)c1` [Example 9-32, N-[1-(cyclobutylmethyl)-1H-pyrazol-4-yl]-6-(1-methyl-1H-pyrrol-3-yl)pyridine-2-carboxamide], the “LRRK2 pIC50” value amounted to 6.59.
Still for that read-out and setting: in the case of `O=C(Nc1cnn(CC2CCC2)c1)c1cccc(-c2cnn(C(F)F)c2)n1` [Example 9-33, N-[1-(cyclobutylmethyl)-1H-pyrazol-4-yl]-6-[1-(difluoromethyl)-1H-pyrazol-4-yl]pyridine-2-carboxamide] it was 6.75; in that of `O=C(Nc1cnn(CC2CCC2)c1)c1cccc(-c2cccnc2)n1` [Example 9-34, N-[1-(cyclobutylmethyl)-1H-pyrazol-4-yl]-2,3′-bipyridine-6-carboxamide], 6.90; in that of `O=C(Nc1cnn(CC2CCC2)c1)c1cccc(-c2cnn(CCN3CCOCC3)c2)n1` [Example 9-35, N-[1-(cyclobutylmethyl)-1H-pyrazol-4-yl]-6-[1-(2-morpholin-4-ylethyl)-1H-pyrazol-4-yl]pyridine-2-carboxamide], 5.32.
On to `O=C(Nc1cnn(CC2CCC2)c1)c1cccc(-c2cnn(Cc3cccnc3)c2)n1` [Example 9-36, N-[1-(cyclobutylmethyl)-1H-pyrazol-4-yl]-6-[1-(pyridin-3-ylmethyl)-1H-pyrazol-4-yl]pyridine-2-carboxamide], for which the “LRRK2 pIC50” value was determined as 6.90.
The same measure, in the same setting: as for `Cn1cc(-c2cccc(C(=O)Nc3cnn(C4CCC4)c3)c2F)cn1` [Example 9-38, N-(1-cyclobutyl-1H-pyrazol-4-yl)-2-fluoro-3-(1-methyl-1H-pyrazol-4-yl)benzamide], the figure is 7.10; as for `O=C(Nc1cnn(C2CCC2)c1)c1csc(-c2cccnc2)n1` [Example 9-39, N-(1-cyclobutyl-1H-pyrazol-4-yl)-2-(pyridin-3-yl)thiazole-4-carboxamide], 7.06.
The same measure, in the same setting: as for `O=C(Nc1cnn(C2CC2)c1)c1csc(-c2ccn[nH]2)n1` [Example 9-40, N-(1-cyclopropyl-1H-pyrazol-4-yl)-2-(1H-pyrazol-5-yl)thiazole-4-carboxamide], the figure is 7.06; as for `N#CC1(c2cccc(C(=O)Nc3cnn(CC4CCC4)c3)n2)CC1` [Example 10-1, 6-(1-Cyanocyclopropyl)-N-(1-(cyclobutylmethyl)-1H-pyrazol-4-yl)picolinamide], 6.90; as for `O=C(Nc1cnn(C2CCC2)c1)c1csc(-n2ccnc2)n1` [Example 11-2, N-(1-cyclobutyl-1H-pyrazol-4-yl)-2-(1H-imidazol-1-yl)thiazole-4-carboxamide], 6.61.
Still for that read-out and setting: in the case of `Cn1cc(-c2nc(C(=O)Nc3cnn(CC4CCC4)c3)cs2)cn1` [Example 12-1, N-(1-(Cyclobutylmethyl)-1H-pyrazol-4-yl)-2-(1-methyl-1H-pyrazol-4-yl)thiazole-4-carboxamide] it was 7.74; in that of `Cn1cc(-c2nc(C(=O)Nc3cn(C4CCC4)nc3C3CC3)cs2)cn1` [Example 12-2, N-(1-cyclobutyl-3-cyclopropyl-1H-pyrazol-4-yl)-2-(1-methyl-1H-pyrazol-4-yl)-1,3-thiazole-4-carboxamide], 7.76.
For the molecule `Cn1cc(-c2nc(C(=O)Nc3cn(C4CC4)nc3C3CC3)cs2)cn1` [Example 12-3, N-(1,3-dicyclopropyl-1H-pyrazol-4-yl)-2-(1-methyl-1H-pyrazol-4-yl)-1,3-thiazole-4-carboxamide], the “LRRK2 pIC50” value was 7.84.

The same assay, now with this note: 134 μM ATP (Km ATP), LRRKtide substrate, negative log of mean IC50 (molar), read-out: LRRK2 pIC50 (converted).
Take `O=C(Nc1cnn(C2CCC2)c1)c1csc(-n2cccn2)n1` [Example 11-1, N-(1-Cyclobutyl-1H-pyrazol-4-yl)-2-(1H-pyrazol-1-yl)thiazole-4-carboxamide]: the IC50 was 100 nM.
